Measurements taken from ChEMBL document CHEMBL1124332, “2-(Alkylamino)tetralin derivatives: interaction with 5-HT1A serotonin binding sites” (J Med Chem, 1989).

Assays:
[1] = molecular target: T1, 5-hydroxytryptamine receptor 1A (Rattus norvegicus) (UniProt P19327); experiment: Binding affinity at [3H]8-OH-DPAT-Labeled 5-hydroxytryptamine 1A receptor sites in rat brain hippocampal membranes expressed as Hill values; assay type: cell membranes
T1 sequence (whole entry): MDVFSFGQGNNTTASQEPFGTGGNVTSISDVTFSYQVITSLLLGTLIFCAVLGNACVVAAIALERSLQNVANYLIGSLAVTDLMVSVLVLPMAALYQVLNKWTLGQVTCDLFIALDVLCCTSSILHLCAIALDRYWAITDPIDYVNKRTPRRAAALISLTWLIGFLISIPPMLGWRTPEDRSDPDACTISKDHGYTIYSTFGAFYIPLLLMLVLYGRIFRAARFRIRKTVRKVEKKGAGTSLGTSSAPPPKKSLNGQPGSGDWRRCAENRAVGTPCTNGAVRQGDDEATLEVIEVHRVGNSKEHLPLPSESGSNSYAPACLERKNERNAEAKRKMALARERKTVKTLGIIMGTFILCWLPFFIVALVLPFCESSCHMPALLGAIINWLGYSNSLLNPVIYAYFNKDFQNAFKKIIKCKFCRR

[2] = molecular target: T2, 5-hydroxytryptamine receptor 1A (Rattus norvegicus, UniProt P19327); experiment: Binding affinity at [3H]8-OH-DPAT-Labeled 5-hydroxytryptamine 1A receptor sites in rat brain hippocampal membranes; assay type: cell membranes
T2 sequence (P19327 whole entry): T1 sequence (whole entry)

Compound	Hill coefficient [1]	Ki [2] [nM]
COc1cccc2c1CC(N(C)CCc1ccccc1)CC2 (stereo not drawn)	0.9	7.9
CCCN(CCC)C1CCc2cccc(O)c2C1 (stereo not drawn)	1.01	
COc1cccc2c1CC(N)CC2 (stereo not drawn)	0.77	53
CCCN(C)C1CCc2cccc(OC)c2C1 (stereo not drawn)	0.91	2.1
COc1cccc2c1CC(NCCCc1ccccc1)CC2 (stereo not drawn)	0.83	2.5
CCCN(CCC)C1CCc2cccc(OC)c2C1 (stereo not drawn)	0.78	
c1ccc(CCCNC2CCc3ccccc3C2)cc1 (stereo not drawn)	1.06	13
CCCNC1CCc2ccccc2C1 (stereo not drawn)	0.74	19
COc1cccc2c1CC(N(C)CCCc1ccccc1)CC2 (stereo not drawn)	0.94	2
c1ccc(CCCNC2CCc3cccc(OCc4ccccc4)c3C2)cc1 (stereo not drawn)	0.91	10
COc1cccc2c1CC(NCCc1ccccc1)CC2 (stereo not drawn)	0.85	44
Oc1cccc2c1CC(NCCCc1ccccc1)CC2 (stereo not drawn)	0.87	1.9
COc1cccc2c1CC(NCCCCc1ccccc1)CC2 (stereo not drawn)	0.92	5.6
COc1cccc2c1CC(N(C)Cc1ccccc1)CC2 (stereo not drawn)	0.91	78
CCCNC1CCc2cccc(OC)c2C1 (stereo not drawn)	0.8	2.3
